# From patent US20240299360A1, “ADAMTS INHIBITORS, PREPARATION METHODS AND MEDICINAL USES THEREOF” (Jiangsu Hengrui Pharmaceuticals Co., Ltd., priority 2020, published 2024)
# Columns and labels:
# Assay type in all cases: biochemical
# [1] = molecular target: T1, ADAMTS-5 recombinant protein (Homo sapiens (Human), UniProt Q9UNA0); assay: In vitro ELISA of ADAMTS-5 activity (Aggrecan-IGD enzymatic assay); conditions: aggrecan-IGD substrate, ARGSVIL-peptide ELISA, 37° C. 45 minutes
# Description: In this assay, the enzymatic activity of recombinant ADAMTS-5 protein (catalog #2198-AD, R&D Systems) was assayed with a protein substrate, the aggrecan IGD protein. The aggrecan IGD protein is a polypeptide connecting human aggrecan globular domains 1 and 2 (T331-G458) expressed in E. Coli with a C-terminal His-tag (catalog #30411000, BIOTEZ). The enzymatic product ARGSVIL-peptide was detected using an ELISA kit from BioTEZ (catalog #30510111).
# An assay buffer containing 50 mM HEPES pH 7.5, 100 mM NaCl, 5 mM CaCl2), 0.1% CHAPS and 5% Glycerol was prepared. Recombinant ADAMTS-5 protein was diluted to 0.3 nM in the assay buffer. Ten μl of […] and 10 μl of compound solution was transferred to each well of a 96-well plate and incubated at room temperature for 15 minutes. Substrate aggrecan-IGD was diluted to 100 nM with the assay buffer and 20 μl was added to each well. The plate was incubated at 37° C. for 45 minutes. After incubation, the newly generated epitope ARGSVIL-peptides were measured using the Aggrecanase Activity ELISA Assay Kit following the manufacturer's instructions. Then, 100 μl of stop solution was added and the absorbance of each well was read at 450 nm, using […] as reference on a TECAN plate reader.
# A standard curve of the ELISA assay was generated in GraphPad Prism using Sigmoidal 4PL function and the corresponding peptide concentrations were calculated based on the standard curve. The IC50 values were calculated using function “log (inhibitor) vs. response—Variable slope (four parameters)”. (See Table 2).
# [2] = molecular target: ADAMTS-4 recombinant protein (Homo sapiens (Human), UniProt O75173); assay: In vitro fluorescence (FRET-peptide) enzymatic assay of ADAMTS-4 activity; conditions: FRET peptide substrate 15 μM, 10 nM enzyme, 37° C. 3 hours
# Description: (§1) A FRET (fluorescence resonance energy transfer) peptide was cleaved by recombinant ADAMTS-4 or ADAMTS-5 proteins into two separate fragments resulting in an increase of fluorescence signal which was quantified. The peptide was 5-FAM-[…](5-TAMRA)K-NH2, customized from ANASPEC. ADAMTS-4 recombinant protein (catalog #4307-AD) and ADAMTS-5 recombinant protein (catalog #2198-AD) were purchased from R&D Systems.
# (§2) An assay buffer containing 50 mM HEPES pH 7.5, 100 mM NaCl, 5 mM CaCl2, 0.1% CHAPS and 5% Glycerol was prepared. A volume of 2.5 μl of compound in the assay buffer was dispensed to a 384-well plate, and 2.5 μl of ADAMTS-4 or ADAMTS-5 protein (final concentration in the reaction was 10 nM) was added. The compounds and proteins were pre-incubated at room temperature for 15 minutes. Then, 5 μl of substrate was added to each well. The final substrate concentrations for ADAMTS-4 and ADAMTS-5 were 15 μM and 8 μM, respectively. The fluorescence signal in each well was determined, after incubation at 37° C. for 3 hours, on a TECAN plate reader (Excitation, 490 nm; Emission, 520 nm).
# (§3) The data was inputted into GraphPad Prism, and the IC50 values were calculated using function “log (inhibitor) vs. response—Variable slope (four parameters)”. (See Table 1)
# [3] = molecular target: T1, ADAMTS-5 recombinant protein; assay: In vitro fluorescence (FRET-peptide) enzymatic assay of ADAMTS-5 activity; conditions: FRET peptide substrate 8 μM, 10 nM enzyme, 37° C. 3 hours
# Description: as §1, §2, §3
# T1 sequence (Q9UNA0 262-622): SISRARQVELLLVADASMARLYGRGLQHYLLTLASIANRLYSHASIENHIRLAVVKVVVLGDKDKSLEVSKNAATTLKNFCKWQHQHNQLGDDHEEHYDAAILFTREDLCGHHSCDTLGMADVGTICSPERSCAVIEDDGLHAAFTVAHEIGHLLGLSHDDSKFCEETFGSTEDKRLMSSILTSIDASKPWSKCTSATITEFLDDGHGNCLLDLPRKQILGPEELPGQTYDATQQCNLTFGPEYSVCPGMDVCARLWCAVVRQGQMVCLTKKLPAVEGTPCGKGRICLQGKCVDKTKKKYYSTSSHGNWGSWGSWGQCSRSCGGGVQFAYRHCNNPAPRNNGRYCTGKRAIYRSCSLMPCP
# ADAMTS-4 recombinant protein, sequence (O75173 213-685): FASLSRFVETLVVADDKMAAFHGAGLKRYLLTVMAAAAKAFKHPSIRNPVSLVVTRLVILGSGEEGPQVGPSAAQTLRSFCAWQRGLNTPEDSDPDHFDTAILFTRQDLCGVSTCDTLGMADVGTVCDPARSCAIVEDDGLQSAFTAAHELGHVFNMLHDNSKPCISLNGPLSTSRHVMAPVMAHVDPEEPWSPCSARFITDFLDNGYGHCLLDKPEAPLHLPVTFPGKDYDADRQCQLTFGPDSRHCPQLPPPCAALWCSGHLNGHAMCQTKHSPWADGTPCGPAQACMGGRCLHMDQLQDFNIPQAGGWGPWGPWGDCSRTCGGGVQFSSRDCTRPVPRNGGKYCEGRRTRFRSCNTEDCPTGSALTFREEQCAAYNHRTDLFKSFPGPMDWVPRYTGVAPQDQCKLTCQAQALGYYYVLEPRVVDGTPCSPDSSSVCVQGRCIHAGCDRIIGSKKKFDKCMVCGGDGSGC
IC50 [1] [nM],IC50 [2] [nM],IC50 [3] [nM],SMILES
33,–,–,"CCC(C[C@@]1(C2CC2)NC(=O)NC1=O)C(=O)N1Cc2ccc(C(F)(F)F)cc2C1 (stereo partly drawn) [Example 31-2, (5S)-5-cyclopropyl-5-(2-(5-(trifluoromethyl)isoindoline-2-carbonyl)butyl)imidazolidine-2,4-dione]"
47,61,27,"Cn1ccnc1C1(CCC(=O)N2Cc3cc(Cl)c(C(F)(F)F)cc3C2)NC(=O)NC1=O (centres unmarked) [Example 73, 5-(3-(5-chloro-6-(trifluoromethyl)isoindolin-2-yl)-3-oxopropyl)-5-(1-methyl-1H-imidazol-2-yl)imidazolidine-2,4-dione]"
–,290,1000,"C[C@@H]1c2ccccc2CN1C(=O)CC[C@@]1(C2CC2)NC(=O)NC1=O [Example 14, (S)-5-cyclopropyl-5-(3-((R)-1-methylisoindolin-2-yl)-3-oxopropyl)imidazolidine-2,4-dione]"
16,5,13,"CC1CN(C(=O)CC[C@@]2(C3CC3)NC(=O)NC2=O)CCc2cc(Cl)c(Cl)cc21 (stereo partly drawn) [Example 37, (S)-5-cyclopropyl-5-(3-(7,8-dichloro-1-methyl-1,2,4,5-tetrahydro-3H-benzo [d]azepin-3-yl)-3-oxopropyl)imidazolidine-2,4-dione]"
–,1700,6200,"O=C1NC(=O)[C@](CCC(=O)N2Cc3cccc(F)c3C2)(C2CC2)N1 [Example 16, (S)-5-cyclopropyl-5-(3-(4-fluoroisoindolin-2-yl)-3-oxopropyl)imidazolidine-2,4-dione]"
170,230,110,"COc1cc2c(cc1Cl)CN(C(=O)CC[C@@]1(C3CC3)NC(=O)NC1=O)C2 [Example 35, (S)-5-(3-(5-chloro-6-methoxyisoindolin-2-yl)-3-oxopropyl)-5-cyclopropylimidazolidine-2,4-dione]"
47,68,40,"[2H]C1([2H])c2cc(Cl)c(Cl)cc2C(C)N1C(=O)CC[C@@]1(C2CC2)NC(=O)NC1=O (stereo partly drawn) [Example 69, (5S)-5-cyclopropyl-5-(3-(5,6-dichloro-1-methylisoindolin-2-yl-3,3-d2)-3-oxopropyl)imidazolidine-2,4-dione]"
29,54,26,"[2H]C1([2H])c2cc(Cl)c(C(F)(F)F)cc2C(C)N1C(=O)CC[C@@]1(C2CC2)NC(=O)NC1=O (stereo partly drawn) [Example 71, (5S)-5-(3-(5-chloro-1-methyl-6-(trifluoromethyl)isoindolin-2-yl-3,3-d2)-3-oxopropyl)-5-cyclopropylimidazolidine-2,4-dione]"
–,56,100,"O=C1NC(=O)[C@](CCC(=O)N2Cc3cc(F)c(C(F)F)cc3C2)(C2CC2)N1 [Example 74, (S)-5-cyclopropyl-5-(3-(5-(difluoromethyl)-6-fluoroisoindolin-2-yl)-3-oxopropyl)imidazolidine-2,4-dione]"
–,41,260,"O=C1NC(=O)[C@](CCC(=O)N2Cc3ccc(OC(F)F)cc3C2)(C2CC2)N1 [Example 10, (S)-5-cyclopropyl-5-(3-(5-(difluoromethoxy)isoindolin-2-yl)-3-oxopropyl)imidazolidine-2,4-dione]"
–,1400,4000,"O=C1NC(=O)[C@](CCC(=O)N2Cc3ccncc3C2)(C2CC2)N1 [Example 13, (S)-5-cyclopropyl-5-(3-(1,3-dihydro-2H-pyrrolo[3,4-c]pyridin-2-yl)-3-oxopropyl)imidazolidine-2,4-dione]"
–,2300,1500,"O=C1NC(=O)[C@](CCC(=O)N2Cc3cccnc3C2)(C2CC2)N1 [Example 12, (S)-5-cyclopropyl-5-(3-(5,7-dihydro-6H-pyrrolo[3,4-b]pyridin-6-yl)-3-oxopropyl)imidazolidine-2,4-dione]"
–,170,270,"C[C@H]1CN(C(=O)CC[C@@]2(C3CC3)NC(=O)NC2=O)CCc2ccc(F)cc21 (single isomer, unassigned) [Example 27]"
–,170,220,"O=C1NC(=O)C(CCC(=O)N2Cc3ccc(C(F)(F)F)cc3C2)(c2ccccn2)N1 (centres unmarked) [Example 60, 5-(3-oxo-3-(5-(trifluoromethyl)isoindolin-2-yl)propyl)-5-(pyridin-2-yl)imidazolidine-2,4-dione]"
–,150,250,"O=C1NC(=O)C(CCC(=O)N2Cc3ccc(C(F)(F)F)cc3C2)(c2nccs2)N1 (centres unmarked) [Example 43, 5-(3-oxo-3-(5-(trifluoromethyl)isoindolin-2-yl)propyl)-5-(thiazol-2-yl)imidazolidine-2,4-dione]"
–,260,330,"O=C1NC(=O)[C@](CCC(=O)N2Cc3cc(F)c(F)cc3C2)(C2CC2)N1 [Example 19, (S)-5-cyclopropyl-5-(3-(5,6-difluoroisoindolin-2-yl)-3-oxopropyl)imidazolidine-2,4-dione]"
–,120,220,"O=C1NC(=O)[C@](CCC(=O)N2Cc3cc(Cl)c([N+](=O)[O-])cc3C2)(C2CC2)N1 [Example 50, (S)-5-(3-(5-chloro-6-nitroisoindolin-2-yl)-3-oxopropyl)-5-cyclopropylimidazolidine-2,4-dione]"
–,5800,3600,"COc1cccc2c1CCN(C(=O)CC[C@@]1(C3CC3)NC(=O)NC1=O)CC2 [Example 25, (S)-5-cyclopropyl-5-(3-(6-methoxy-1,2,4,5-tetrahydro-3H-benzo[d]azepin-3-yl)-3-oxopropyl)imidazolidine-2,4-dione]"
–,400,160,"Cn1ccc(C2(CCC(=O)N3Cc4cc(Cl)c(C(F)(F)F)cc4C3)NC(=O)NC2=O)n1 (centres unmarked) [Example 77, 5-(3-(5-chloro-6-(trifluoromethyl)isoindolin-2-yl)-3-oxopropyl)-5-(1-methyl-1H-pyrazol-3-yl)imidazolidine-2,4-dione]"
–,310,370,"O=C1NC(=O)[C@](CCC(=O)N2Cc3ccc(F)cc3C2)(C2CC2)N1 [Example 17, (S)-5-cyclopropyl-5-(3-(5-fluoroisoindolin-2-yl)-3-oxopropyl)imidazolidine-2,4-dione]"
–,47,48,"C[C@@H]1CN(C(=O)CC[C@@]2(C3CC3)NC(=O)NC2=O)CCc2ccc(F)cc21 (single isomer, unassigned) [Example 28]"
–,16,15,"O=C1NC(=O)[C@](C[C@@H](CO)C(=O)N2Cc3cc(Cl)c(C(F)(F)F)cc3C2)(C2CC2)N1 (single isomer, unassigned)"
–,80,25,"CCn1ccnc1C1(CCC(=O)N2Cc3cc(Cl)c(C(F)(F)F)cc3C2)NC(=O)NC1=O (centres unmarked) [Example 82, 5-(3-(5-chloro-6-(trifluoromethyl)isoindolin-2-yl)-3-oxopropyl)-5-(1-ethyl-1H-imidazol-2-yl)imidazolidine-2,4-dione]"
–,240,170,"O=C1NC(=O)[C@](CCC(=O)N2Cc3cc(Cl)c(I)cc3C2)(C2CC2)N1 [Example 53, (S)-5-(3-(5-chloro-6-iodoisoindolin-2-yl)-3-oxopropyl)-5-cyclopropylimidazolidine-2,4-dione]"
–,3800,5400,"CC1(C)CN(C(=O)CC[C@@]2(C3CC3)NC(=O)NC2=O)CCc2ccccc21 [Example 26, (S)-5-cyclopropyl-5-(3-(1,1-dimethyl-1,2,4,5-tetrahydro-3H-benzo[d]azepin-3-yl)-3-oxopropyl)imidazolidine-2,4-dione]"

SMILES,IC50 [1] [nM],IC50 [2] [nM],IC50 [3] [nM]
"O=C1NC(=O)[C@](CCC(=O)N2Cc3ccc(CC(F)(F)F)cc3C2)(C2CC2)N1 [Example 72, (S)-5-cyclopropyl-5-(3-oxo-3-(5-(2,2,2-trifluoroethyl)isoindolin-2-yl)propyl)imidazolidine-2,4-dione]",–,43,130
